Species: Rattus norvegicus
Experiment: Open TG-GATES - Regimen: Daily Repeat
Type: toxicity, organism-based, Sprague-Dawley
Set-up: regimen Daily Repeat, gender Male, age 6 weeks
Settings: in vivo, po, route gavage; for APTT / Bas / Eos / Fbg / Hb / Ht / Lym / MCH / MCHC / MCV / Mono / Neu / PT / Plat / RBC / Ret / WBC: tissue Blood; for KIDNEY_L / KIDNEY_R / KIDNEY_TOTAL: tissue Kidney; for LIVER: tissue Liver; for A/G / ALP / ALT / AST / BUN / CRE / Ca / Cl / DBIL / GLC / IP / K / LDH / Na / PL / RALB / TBIL / TC / TG / TP / gamma-GTP: tissue Plasma
[1] = 0 mg/kg, 72 h, dose level Control, time 3 day
[2] = 0 mg/kg, […], dose level Control, time 7 day
[3] = 0 mg/kg, […], dose level Control, time 14 day
[4] = 0 mg/kg, […], dose level Control, time 28 day
[5] = 15 mg/kg, 72 h, dose level Low, time 3 day
[6] = 15 mg/kg, […], dose level Low, time 7 day
[7] = 15 mg/kg, […], dose level Low, time 14 day
[8] = 15 mg/kg, […], dose level Low, time 28 day

CN(C)CCC=C1c2ccccc2CCc2ccccc21 [AMITRIPTYLINE]
TERMINAL_BW [1]: 226.6 g
APTT [1]: 14.9 s
Bas [1]: 0%
Eos [1]: 1.2%
Fbg [1]: 287.4 mg/dL
Hb [1]: 13 g/dL
Ht [1]: 39.9%
Lym [1]: 71.4%
MCH [1]: 21.3 pg
MCHC [1]: 32.7%
MCV [1]: 65.1 fL
Mono [1]: 3.4%
Neu [1]: 23.4%
PT [1]: 15.5 s
Plat [1]: 116.7 x10_4/uL
RBC [1]: 613.4 x10_4/ul
Ret [1]: 7.7%
WBC [1]: 71.8 x10_2/uL
KIDNEY_L [1]: 0.9 g
KIDNEY_R [1]: 0.9 g
KIDNEY_TOTAL [1]: 1.8 g
LIVER [1]: 10.7 g
A/G [1]: 0.8
ALP [1]: 1976.4 IU/L
ALT [1]: 54.6 IU/L
AST [1]: 74.2 IU/L
BUN [1]: 16.4 mg/dL
CRE [1]: 0.2 mg/dL
Ca [1]: 11.2 mg/dL
Cl [1]: 105.6 meq/L
DBIL [1]: 0.02 mg/dL
GLC [1]: 179.4 mg/dL
IP [1]: 7.9 mg/dL
K [1]: 4.1 meq/L
LDH [1]: 81 IU/L
Na [1]: 143.8 meq/L
PL [1]: 162.2 mg/dL
RALB [1]: 2.7 g/dL
TBIL [1]: 0.054 mg/dL
TC [1]: 83.2 mg/dL
TG [1]: 121.8 mg/dL
TP [1]: 5.9 g/dL
gamma-GTP [1]: 0.6 IU/L
TERMINAL_BW [2]: 259.7 g
TERMINAL_BW [3]: 318.6 g
TERMINAL_BW [4]: 406.1 g
APTT [2]: 16.5 s
Bas [2]: 0.6%
Eos [2]: 1%
Fbg [2]: 302.6 mg/dL
Hb [2]: 13.5 g/dL
Ht [2]: 40.7%
Lym [2]: 78.8%
MCH [2]: 20.8 pg
MCHC [2]: 33.1%
MCV [2]: 62.8 fL
Mono [2]: 2.8%
Neu [2]: 16.4%
PT [2]: 15.2 s
Plat [2]: 109.9 x10_4/uL
RBC [2]: 648.8 x10_4/ul
Ret [2]: 5.7%
WBC [2]: 86.3 x10_2/uL
APTT [3]: 17.3 s
Bas [3]: 0%
Eos [3]: 1%
Fbg [3]: 294.4 mg/dL
Hb [3]: 13.8 g/dL
Ht [3]: 41.5%
Lym [3]: 76.8%
MCH [3]: 20.9 pg
MCHC [3]: 33.3%
MCV [3]: 62.5 fL
Mono [3]: 2.2%
Neu [3]: 19%
PT [3]: 15.6 s
Plat [3]: 127.9 x10_4/uL
RBC [3]: 664.4 x10_4/ul
Ret [3]: 4.7%
WBC [3]: 94.5 x10_2/uL
APTT [4]: 18.5 s
Bas [4]: 0.2%
Eos [4]: 1%
Fbg [4]: 253 mg/dL
Hb [4]: 14.9 g/dL
Ht [4]: 43.8%
Lym [4]: 77.2%
MCH [4]: 19.6 pg
MCHC [4]: 33.9%
MCV [4]: 57.7 fL
Mono [4]: 2.6%
Neu [4]: 18.2%
PT [4]: 16.2 s
Plat [4]: 104.1 x10_4/uL
RBC [4]: 760.8 x10_4/ul
Ret [4]: 2.5%
WBC [4]: 120.5 x10_2/uL
KIDNEY_L [2]: 1 g
KIDNEY_R [2]: 1 g
KIDNEY_TOTAL [2]: 2 g
KIDNEY_L [3]: 1.2 g
KIDNEY_R [3]: 1.2 g
KIDNEY_TOTAL [3]: 2.5 g
KIDNEY_L [4]: 1.4 g
KIDNEY_R [4]: 1.4 g
KIDNEY_TOTAL [4]: 2.8 g
LIVER [2]: 11.9 g
LIVER [3]: 14 g
LIVER [4]: 17 g
A/G [2]: 0.8
ALP [2]: 1482.8 IU/L
ALT [2]: 40.8 IU/L
AST [2]: 64.2 IU/L
BUN [2]: 16 mg/dL
CRE [2]: 0.2 mg/dL
Ca [2]: 10.9 mg/dL
Cl [2]: 106.4 meq/L
DBIL [2]: 0.014 mg/dL
GLC [2]: 185.8 mg/dL
IP [2]: 7.5 mg/dL
K [2]: 3.9 meq/L
LDH [2]: 56.4 IU/L
Na [2]: 143.8 meq/L
PL [2]: 165.8 mg/dL
RALB [2]: 2.6 g/dL
TBIL [2]: 0.052 mg/dL
TC [2]: 81.2 mg/dL
TG [2]: 131.2 mg/dL
TP [2]: 5.8 g/dL
gamma-GTP [2]: 0.6 IU/L
A/G [3]: 0.8
ALP [3]: 1703.4 IU/L
ALT [3]: 41.8 IU/L
AST [3]: 68.6 IU/L
BUN [3]: 17.6 mg/dL
CRE [3]: 0.2 mg/dL
Ca [3]: 10.9 mg/dL
Cl [3]: 106 meq/L
DBIL [3]: 0.024 mg/dL
GLC [3]: 191.8 mg/dL
IP [3]: 6.3 mg/dL
K [3]: 4.3 meq/L
LDH [3]: 70.8 IU/L
Na [3]: 142.4 meq/L
PL [3]: 157 mg/dL
RALB [3]: 2.7 g/dL
TBIL [3]: 0.046 mg/dL
TC [3]: 71.6 mg/dL
TG [3]: 128.8 mg/dL
TP [3]: 6.1 g/dL
gamma-GTP [3]: 0.4 IU/L
A/G [4]: 0.8
ALP [4]: 1151.8 IU/L
ALT [4]: 47.2 IU/L
AST [4]: 83 IU/L
BUN [4]: 17.6 mg/dL
CRE [4]: 0.2 mg/dL
Ca [4]: 10.5 mg/dL
Cl [4]: 104.8 meq/L
DBIL [4]: 0.02 mg/dL
GLC [4]: 198.6 mg/dL
IP [4]: 6.3 mg/dL
K [4]: 3.7 meq/L
LDH [4]: 116.2 IU/L
Na [4]: 143 meq/L
PL [4]: 138 mg/dL
RALB [4]: 2.8 g/dL
TBIL [4]: 0.058 mg/dL
TC [4]: 62 mg/dL
TG [4]: 134.8 mg/dL
TP [4]: 6.2 g/dL
gamma-GTP [4]: 0.4 IU/L
TERMINAL_BW [5]: 224.1 g
APTT [5]: 16 s
Bas [5]: 0%
Eos [5]: 1%
Fbg [5]: 268.6 mg/dL
Hb [5]: 13.1 g/dL
Ht [5]: 40%
Lym [5]: 76.8%
MCH [5]: 20.3 pg
MCHC [5]: 32.7%
MCV [5]: 62 fL
Mono [5]: 3%
Neu [5]: 18.2%
PT [5]: 16 s
Plat [5]: 118.8 x10_4/uL
RBC [5]: 645.4 x10_4/ul
Ret [5]: 7.3%
WBC [5]: 97.8 x10_2/uL
KIDNEY_L [5]: 0.9 g
KIDNEY_R [5]: 0.9 g
KIDNEY_TOTAL [5]: 1.8 g
LIVER [5]: 10.4 g
A/G [5]: 0.8
ALP [5]: 1844.8 IU/L
ALT [5]: 55.8 IU/L
AST [5]: 74.6 IU/L
BUN [5]: 14.2 mg/dL
CRE [5]: 0.2 mg/dL
Ca [5]: 11 mg/dL
Cl [5]: 105.6 meq/L
DBIL [5]: 0.022 mg/dL
GLC [5]: 185.2 mg/dL
IP [5]: 7.7 mg/dL
K [5]: 4 meq/L
LDH [5]: 74.6 IU/L
Na [5]: 143.6 meq/L
PL [5]: 150.2 mg/dL
RALB [5]: 2.7 g/dL
TBIL [5]: 0.06 mg/dL
TC [5]: 76.2 mg/dL
TG [5]: 106 mg/dL
TP [5]: 5.8 g/dL
gamma-GTP [5]: 0.8 IU/L
TERMINAL_BW [6]: 265.9 g
TERMINAL_BW [7]: 314.4 g
TERMINAL_BW [8]: 400.5 g
APTT [6]: 15.5 s
Bas [6]: 0%
Eos [6]: 1.2%
Fbg [6]: 292 mg/dL
Hb [6]: 13.6 g/dL
Ht [6]: 41.4%
Lym [6]: 79.6%
MCH [6]: 20.6 pg
MCHC [6]: 32.7%
MCV [6]: 62.8 fL
Mono [6]: 3%
Neu [6]: 15.6%
PT [6]: 15.1 s
Plat [6]: 116.5 x10_4/uL
RBC [6]: 659 x10_4/ul
Ret [6]: 6.3%
WBC [6]: 93.6 x10_2/uL
APTT [7]: 17.3 s
Bas [7]: 0.4%
Eos [7]: 1%
Fbg [7]: 289.6 mg/dL
Hb [7]: 14 g/dL
Ht [7]: 42.2%
Lym [7]: 76%
MCH [7]: 20 pg
MCHC [7]: 33.2%
MCV [7]: 60.3 fL
Mono [7]: 2.2%
Neu [7]: 20%
PT [7]: 16 s
Plat [7]: 118.1 x10_4/uL
RBC [7]: 698.6 x10_4/ul
Ret [7]: 4.4%
WBC [7]: 115.2 x10_2/uL
APTT [8]: 21.5 s
Bas [8]: 0.2%
Eos [8]: 1.4%
Fbg [8]: 286.6 mg/dL
Hb [8]: 15.5 g/dL
Ht [8]: 45.4%
Lym [8]: 81.4%
MCH [8]: 19.3 pg
MCHC [8]: 34.1%
MCV [8]: 56.6 fL
Mono [8]: 2%
Neu [8]: 14.2%
PT [8]: 16.1 s
Plat [8]: 97.5 x10_4/uL
RBC [8]: 802.8 x10_4/ul
Ret [8]: 2.5%
WBC [8]: 104.9 x10_2/uL
KIDNEY_L [6]: 1.1 g
KIDNEY_R [6]: 1.1 g
KIDNEY_TOTAL [6]: 2.1 g
KIDNEY_L [7]: 1.2 g
KIDNEY_R [7]: 1.2 g
KIDNEY_TOTAL [7]: 2.4 g
KIDNEY_L [8]: 1.4 g
KIDNEY_R [8]: 1.4 g
KIDNEY_TOTAL [8]: 2.8 g
LIVER [6]: 12.7 g
LIVER [7]: 13.8 g
LIVER [8]: 16.1 g
A/G [6]: 0.8
ALP [6]: 1784.2 IU/L
ALT [6]: 44.8 IU/L
AST [6]: 70.6 IU/L
BUN [6]: 18.4 mg/dL
CRE [6]: 0.2 mg/dL
Ca [6]: 10.9 mg/dL
Cl [6]: 105.6 meq/L
DBIL [6]: 0.018 mg/dL
GLC [6]: 187.6 mg/dL
IP [6]: 7.7 mg/dL
K [6]: 4.1 meq/L
LDH [6]: 85.8 IU/L
Na [6]: 143.8 meq/L
PL [6]: 163.8 mg/dL
RALB [6]: 2.7 g/dL
TBIL [6]: 0.046 mg/dL
TC [6]: 78 mg/dL
TG [6]: 126 mg/dL
TP [6]: 5.9 g/dL
gamma-GTP [6]: 0.8 IU/L
A/G [7]: 0.8
ALP [7]: 1397.6 IU/L
ALT [7]: 44 IU/L
AST [7]: 69 IU/L
BUN [7]: 16.8 mg/dL
CRE [7]: 0.2 mg/dL
Ca [7]: 10.9 mg/dL
Cl [7]: 105.8 meq/L
DBIL [7]: 0.018 mg/dL
GLC [7]: 196 mg/dL
IP [7]: 6.8 mg/dL
K [7]: 4 meq/L
LDH [7]: 65 IU/L
Na [7]: 142.8 meq/L
PL [7]: 154 mg/dL
RALB [7]: 2.7 g/dL
TBIL [7]: 0.05 mg/dL
TC [7]: 70 mg/dL
TG [7]: 156.2 mg/dL
TP [7]: 6.1 g/dL
gamma-GTP [7]: 0.4 IU/L
A/G [8]: 0.8
ALP [8]: 1354.6 IU/L
ALT [8]: 36 IU/L
AST [8]: 61.2 IU/L
BUN [8]: 17.6 mg/dL
CRE [8]: 0.2 mg/dL
Ca [8]: 10.6 mg/dL
Cl [8]: 103.8 meq/L
DBIL [8]: 0.018 mg/dL
GLC [8]: 180.6 mg/dL
IP [8]: 6.2 mg/dL
K [8]: 3.8 meq/L
LDH [8]: 55.4 IU/L
Na [8]: 142.8 meq/L
PL [8]: 156.2 mg/dL
RALB [8]: 2.8 g/dL
TBIL [8]: 0.056 mg/dL
TC [8]: 77 mg/dL
TG [8]: 130.4 mg/dL
TP [8]: 6.3 g/dL
gamma-GTP [8]: 0 IU/L
